The target in assay [1] is T1, DRB1*0401 (DR4w4) (Homo sapiens, UniProt P01903+P01911, A100K/A169T/F76Y/I96L/K127E/L162R/M171V/N62H/P40V/Q125Y/R42H/S133A/S149N/S66Y/V115G/V209L/W38E). As to conditions: read-out: IC50 nM to purified HLA DRB1 *0401; HTL epitopes.
Assay [2] concerns the target T2, DRB4*0101 (DRw53) (Homo sapiens, UniProt P01903+P13762, G164S). The settings on record: read-out: IC50 nM to purified HLA DRB4 *0101; HTL epitopes.
The next assay concerns the target DRB1*0404 (DR4w14) (Homo sapiens, UniProt P01903+P01911, A100R/A169T/F76Y/I96L/K127E/L162R/M171V/N62H/P40V/Q125Y/R42H/S133A/S149N/S66Y/V209L/W38E). As to the kind of experiment: biochemical.
A further assay deals with DRB1*1302 (DR6w19) (Homo sapiens, UniProt P01903+P01911, A100E/A169T/K41T/L162R/M171V/P40S/Q125H/Q178H/Q39Y/Q99D/R42S/S66N/T262R/V115G/W38E/Y61H). As to the kind of experiment: biochemical.
DRB1*1302 (DR6w19), sequence (P01903 26-254, other chains not shown): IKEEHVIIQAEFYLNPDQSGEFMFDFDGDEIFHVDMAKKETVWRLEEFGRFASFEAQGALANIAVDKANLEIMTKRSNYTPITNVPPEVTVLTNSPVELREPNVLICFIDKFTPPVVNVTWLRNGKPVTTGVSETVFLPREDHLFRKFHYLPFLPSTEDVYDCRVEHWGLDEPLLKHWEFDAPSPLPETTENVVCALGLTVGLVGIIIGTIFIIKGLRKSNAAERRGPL
The target in assay [3] is T2, DRB4*0101 (DRw53). Put plainly: biochemical.
The target in a further assay is DRB5*0101 (DR2w2beta-2) (Homo sapiens, UniProt P01903+Q30154). Put plainly: biochemical.
A further assay concerns the target DRB1*0101 (DR1) (Homo sapiens, UniProt P01903+P01911, A100R/D57E/F55L/F60I/F76Y/I96L/L162R/M171V/P40L/Q125E/R42F/V115G/Y59C). Put plainly: biochemical.
The target in the next assay is DRB1*0301 (DR3) (Homo sapiens, UniProt P01903+P01911, A100K/A102G/A103R/A169T/F55Y/I96L/K41T/L162R/M171V/P40S/Q125H/Q178H/Q39Y/R42S/S66N/T106N/T262R/W38E/Y61H). Put plainly: biochemical.
DRB1*0301 (DR3), sequence (P01903 26-254, other chains not shown): as above
Assay [4] concerns the target T1, DRB1*0401 (DR4w4). As to the kind of experiment: biochemical.
The target in a further assay is DRB1*0405 (DR4w15) (Homo sapiens, UniProt P01903+P01911, A100R/A169T/D86S/F76Y/I96L/K127E/L162R/M171V/N62H/P40V/Q125Y/R42H/S133A/S149N/S66Y/V115G/V209L/W38E). As to the kind of experiment: biochemical.
DRB1*0405 (DR4w15), sequence (P01903 26-254 partner, other chains not shown): as the sequence (P01903 26-254, other chains not shown) above
The target in a further assay is DRB1*0701 (DR7) (Homo sapiens, UniProt P01903+P01911, A100R/A102G/A103Q/D57E/D86V/E43K/F76Y/K127E/L162R/M171V/P40G/Q125H/Q99D/R33Q/R42Y/R54Q/S133A/S66F/T210M/V115G/Y107V/Y59L/Y89S). As to the kind of experiment: biochemical.
In a further assay the target is DRB1*0802 (DR8w2) (Homo sapiens, UniProt P01903+P01911, A100R/A103L/A169T/F76Y/H45Y/I96F/K41T/L162R/M171V/P40S/Q125H/Q178H/Q39Y/Q99D/R218S/R42G/S66Y/V115G/W38E). Put plainly: biochemical.
In another assay the target is DRB1*1101 (DR5) (Homo sapiens, UniProt P01903+P01911, A100R/A169T/A87E/I96F/K41T/L162R/M171V/P40S/Q125H/Q178H/Q39Y/Q99D/R42S/S66Y/T262R/V115G/W38E). As to the kind of experiment: biochemical.
DRB1*1101 (DR5), sequence (P01903 26-254 partner, other chains not shown): as the sequence (P01903 26-254, other chains not shown) above
A further assay addresses DRB1*1501 (DR2w2beta-1) (Homo sapiens, UniProt P01903+P01911). Put plainly: biochemical.
The next assay concerns the target DRB1*0901 (Homo sapiens, UniProt P01903+P01911, A100R/A103E/D57H/D86V/F55Y/F60I/F76Y/I96F/K127E/L162R/M171V/P40D/Q125H/Q99R/R33Q/R42F/S133A/S66N/T210M/V115G/W38K/Y107V/Y59G/Y89S). As to the kind of experiment: biochemical.

Read-outs that look alike come from different tables or passages of the source. Where no end group is shown, it is not given here. Where only a bound is given, the exact number is not on record here.

This is an account of results in patent US8969542B2, “HPV polyepitope constructs and uses thereof” (priority 2007, dated 2015).

T1 sequence (P01903 26-254 partner, other chains not shown): as the sequence (P01903 26-254, other chains not shown) above

One may read the IC50 as the point on the concentration scale where inhibition reaches its midpoint. On to “LQAIELQLTLETIYN (Human papillomavirus type 16) [SEQ ID 92]”, for which the values for the IC50 with DRB1*0401 (DR4w4) [1] and with DRB4*0101 (DRw53) [2] were 37 nM and 2 nM, respectively.
Consider `CC[C@H](C)[C@H](NC(=O)CNC(=O)[C@H](CCC(=O)O)NC(=O)[C@H](Cc1c[nH]cn1)NC(=O)[C@@H](NC(=O)[C@H](Cc1ccc(O)cc1)NC(=O)[C@H](Cc1ccc(O)cc1)NC(=O)[C@H](CC(C)C)NC(=O)CN)C(C)C)C(=O)N[C@@H](CCCNC(=N)N)C(=O)N[C@H](C(=O)N[C@@H](Cc1ccc(O)cc1)C(=O)N[C@@H](Cc1ccccc1)C(=O)N[C@H](C(=O)N[C@@H](CCC(N)=O)C(=O)O)C(C)C)[C@@H](C)O` [compound 93], for which the 50% inhibitory concentration (IC50) at DRB1*0404 (DR4w14) was more than 20 µM; against DRB1*1302 (DR6w19), more than 20000 nM; on DRB4*0101 (DRw53) [3], more than 20000 nM; against DRB5*0101 (DR2w2beta-2) it was 1000 nM.
In the case of WKHMRLECAIYYKAR [compound 91], the IC50 on DRB1*0101 (DR1) was determined as 701 nM; at DRB1*0301 (DR3) it was 437 nM; at DRB1*0401 (DR4w4) [4] it was 245 nM; at DRB1*0404 (DR4w14), 6.86 µM; on DRB1*0405 (DR4w15), 557 nM; against DRB1*0701 (DR7) it was 504 nM. For the same compound, the IC50 turned out to be 90 nM against DRB1*0802 (DR8w2); 2400 nM on DRB1*1101 (DR5); 248 nM against DRB1*1302 (DR6w19); 1390 nM against DRB1*1501 (DR2w2beta-1); 766 nM against DRB4*0101 (DRw53) [3]; 280 nM on DRB5*0101 (DR2w2beta-2). This compound gave an IC50 against DRB1*0901 of 6.34 µM.
